Measured values as given in patent US20210261528A1, “SALTS OF (S)-(5-CYCLOBUTOXY-2-METHYL-6-(1-(PIPERIDIN-4-YL)-1H-PYRAZOL-4-YL)-3,4-DIHYDROQUINOLIN-1(2H)-YL)(CYCLOPROPYL)METHANONE AND SOLID FORMS THEREOF” (FORMA Therapeutics, Inc., priority 2018, published 2021).

Experiments:
Type in all cases: physicochemical
[1] = Hygroscopicity evaluation by Dynamic Vapor Sorption (DVS) with XRPD of the solids after DVS; conditions: for solid form after the DVS test: XRPD of solids after DVS
Method: Dynamic Vapor Sorption (DVS) was obtained using a Surface Measurement Systems (SMS) DVS Intrinsic. The relative humidity at 25° C. were calibrated against deliquescence point of LiCl, Mg (NO3)2 and KCl.

[2] = Chemical stability by HPLC-UV at 275 nm and 254 nm (Table 9)
Method: High Pressure Liquid Chromatography (HPLC) data were obtained according to Tables 6 or 7, below:
A standard stock was dissolved with diluent in a volumetric flask (e.g., 25 mg in 25 mL). This stock was vortexed and sonicated 10 sec to dissolve, and then diluted 1:10, 1:4, and 1:2 either in volumetric flasks or in HPLC vials to generate a standard curve. […] Where appropriate, a blank was created to accurately replicate the matrix of the analytical sample, and peaks appearing in the blank were identified before integration and quantification using Chemstation software.
The chemical stability of Succinate Form A was determined using HPLC-UV at 275 nm and 254 nm.
The chemical stability of Form G was determined using HPLC-UV at 275 nm and 254 nm.

[3] = Physical stability of Compound 2 Form G over 42 days at varying conditions by XRPD, PLM, DSC/TGA (Table 23)
Method: The stability of Compound 2 Form G was tested over 42 days at varying conditions and is reported below in Table 23 and in FIG. 61:
On Day 38, stability samples at 50° C. were exposed to temperatures of approximately 85° C. for 24 hours.

[4] = Aqueous solubility estimation of Compound 2 Form G, Form O and Form I at RT (Example 13, Table 27)
Method: Aqueous solubility tests at RT were conducted on the two potential anhydrates, Form G and O, and the hydrated Form I. About 3 mg of each form was weighed into a 2-mL vial. […] of water was added and stirred thoroughly at RT with the speed of 800 RPM.

[5] = Slurry competition between Compound 2 Form G and Form O for stability evaluation (Example 10, Table 24); conditions: IPAc and MTBE, RT and 50° C., 24 hours
Method: The slurry competition experiments between the two anhydrates, Form G and Form O, were performed in two solvents, IPAc and MTBE, at RT and 50° C. for stability evaluation. Form O was dissolved in IPAc and MTBE respectively to get saturated solutions. Then, similar masses of Form G and Form O were added into a 2-mL vial, upon which the corresponding saturated solution was added to give the slurry, which was stirred at RT or 50° C. for 24 hours. The solids collected were analyzed by XRPD to confirm the form change.

[6] = Slurry turnover of Compound 2 Form B, Form I and Form G (Example 11, Table 25); conditions: IPAc and MTBE, RT or 50° C., 24 hours
Method: To further study the form identity of Form B and Form I, slurry turnover experiments were performed in two solvents with the addition of Form G. Form B was dissolved in IPAc and MTBE respectively to get saturated solutions. Similar mass of Form B, G and I were weighed into a 2-mL vial, upon which the corresponding saturated solution was added to give the slurry, which was stirred at RT or 50° C. After slurry for 24 hours, the solids obtained were analyzed by XRPD.

[7] = Critical aw between Compound 2 Form G and Form I, slurry turnover in H2O/IPAc (Example 12, Table 26); conditions: H2O/IPAc, RT and 50° C., 24 hrs; except aw of 0.8 at RT (close to amorphous)
Method: To investigate the critical aw between hydrated Form I and the stable anhydrate, Form G, slurry turnover of Form I and Form G was conducted in a co-solvent system (H2O/IPAc) with different aw at RT and 50° C. Similar mass of Form G and Form I were added into a 2-mL vial, followed by adding solvent and stirring at RT or 50° C. for 24 hrs. The solids obtained were analyzed by XRPD to confirm the form change.

[8] = Slurry conversion of Fumarate Forms A, B and C (Example 6, Table 11); conditions: RT, about 4 days
Method: Slurry conversion of Fumarate Forms A, B, and C was conducted in three different solvents.

[9] = Aqueous solubility evaluation of Compound 1 salt forms (Example 5, Table 10)
Method: For each of the experiments 1 through 5 in Table 10, about 100 mg of solid form was suspended in 1.5 mL of water, and the vial was rolled at RT for about 24 hours (25 r/min). […] Supernatant of experiment 3 was collected by filtration through a 0.45 μm membrane for HPLC analysis. For each of the experiments 6 through 10 in Table 10, about 40 mg of solid form was dissolved in 0.2 mL (0.9 mL for experiment 7) water and then analyzed by HPLC after 24-hour storage at RT.

[10] = ambient conditions and 25° C./60% RH open, 42 days, 254 nm
[11] = 50° C., closed, 42* days (Day 38 excursion to approximately 85° C. for 24 hours)

C[C@H]1CCc2c(ccc(-c3cnn(C4CCNCC4)c3)c2OC2CCC2)N1C(=O)C1CC1.O=C(O)CCC(=O)O [Form G, (S)-(5-cyclobutoxy-2-methyl-6-(1-(piperidin-4-yl)-1H-pyrazol-4-yl)-3,4-dihydroquinolin-1(2H)-yl)(cyclopropyl)methanone succinate]
solid form after the DVS test ([1]; succinate): amorphous
water absorbed above 70% RH (DVS) ([1]; above 70% RH): about 25.19 % (wt/wt)
hygroscopicity (DVS) ([1]; absorption up to 80% RH, 25° C., succinate): high hygroscopicity
claim of the expected Compound 2 content by HPLC-UV ([2]; all stability samples, 275 nm): 95-107 % claim
impurity increase by HPLC-UV [2, 10]: no significant impurity increase
reduction in purity by HPLC-UV [2, 10]: no reduction in purity
DSC endotherm Temp ([3]; 25° C./60% RH open, 1 days): 125.46 °C
DSC endotherm ΔH ([3]; 25° C./60% RH open, 1 days): 66.76 J/g
TGA % weight loss before 150° C. ([3]; 25° C./60% RH open, 1 days): 0.4580%
DSC endotherm Temp ([3]; 25° C./60% RH open, 3 days): 125.61 °C
DSC endotherm ΔH ([3]; 25° C./60% RH open, 3 days): 63.86 J/g
TGA % weight loss before 150° C. ([3]; 25° C./60% RH open, 3 days): 0.5433%
DSC endotherm Temp ([3]; 25° C./60% RH open, 7 days): 125.68 °C
DSC endotherm ΔH ([3]; 25° C./60% RH open, 7 days): 64.19 J/g
TGA % weight loss before 150° C. ([3]; 25° C./60% RH open, 7 days): 0.5129%
DSC endotherm Temp ([3]; 25° C./60% RH open, 14 days): 125.64 °C
DSC endotherm ΔH ([3]; 25° C./60% RH open, 14 days): 65.95 J/g
TGA % weight loss before 150° C. ([3]; 25° C./60% RH open, 14 days): 0.5232%
DSC endotherm Temp ([3]; 25° C./60% RH open, 21 days): 125.94 °C
DSC endotherm ΔH ([3]; 25° C./60% RH open, 21 days): 64.03 J/g
TGA % weight loss before 150° C. ([3]; 25° C./60% RH open, 21 days): 0.6097%
DSC endotherm Temp ([3]; 25° C./60% RH open, 42 days): 126.50 °C
DSC endotherm ΔH ([3]; 25° C./60% RH open, 42 days): 57.76 J/g
TGA % weight loss before 150° C. ([3]; 25° C./60% RH open, 42 days): 0.6016%
flowability by visual assessment ([3]; 50° C. sample after being exposed to higher temperatures): slight reduction in flowability
physical stability (XRPD, DSC/TGA, PLM) ([3]; 50° C. samples, exposed on Day 38 to approximately 85° C. for 24 hours): physically stable
DSC endotherm Temp [3, 11]: 121.80 °C
DSC endotherm ΔH [3, 11]: 51.32 J/g
TGA % weight loss before 150° C. [3, 11]: 0.7707%
DSC endotherm Temp ([3]; 50° C., closed, 1 days): 125.53 °C
DSC endotherm ΔH ([3]; 50° C., closed, 1 days): 67.41 J/g
TGA % weight loss before 150° C. ([3]; 50° C., closed, 1 days): 0.4716%
DSC endotherm Temp ([3]; 50° C., closed, 3 days): 125.97 °C
DSC endotherm ΔH ([3]; 50° C., closed, 3 days): 59.90 J/g
TGA % weight loss before 150° C. ([3]; 50° C., closed, 3 days): 0.4670%
DSC endotherm Temp ([3]; 50° C., closed, 7 days): 125.97 °C
DSC endotherm ΔH ([3]; 50° C., closed, 7 days): 65.47 J/g
TGA % weight loss before 150° C. ([3]; 50° C., closed, 7 days): 0.5022%
DSC endotherm Temp ([3]; 50° C., closed, 14 days): 125.16 °C
DSC endotherm ΔH ([3]; 50° C., closed, 14 days): 64.27 J/g
TGA % weight loss before 150° C. ([3]; 50° C., closed, 14 days): 0.5893%
DSC endotherm Temp ([3]; 50° C., closed, 21 days): 125.21 °C
DSC endotherm ΔH ([3]; 50° C., closed, 21 days): 64.69 J/g
TGA % weight loss before 150° C. ([3]; 50° C., closed, 21 days): 0.5702%
DSC endotherm Temp ([3]; Initial, 0 days): 125.51 °C
DSC endotherm ΔH ([3]; Initial, 0 days): 63.56 J/g
TGA % weight loss before 150° C. ([3]; Initial, 0 days): 0.5459%
flow properties by visual assessment ([3]; ambient 42 days, 25° C./75% RH 42 days, 50° C. 21 days): good flow properties
DSC endotherm Temp ([3]; ambient, closed, 1 days): 125.59 °C
DSC endotherm ΔH ([3]; ambient, closed, 1 days): 62.59 J/g
TGA % weight loss before 150° C. ([3]; ambient, closed, 1 days): 0.5454%
DSC endotherm Temp ([3]; ambient, closed, 3 days): 125.61 °C
DSC endotherm ΔH ([3]; ambient, closed, 3 days): 63.01 J/g
TGA % weight loss before 150° C. ([3]; ambient, closed, 3 days): 0.5338%
DSC endotherm Temp ([3]; ambient, closed, 7 days): 125.41 °C
DSC endotherm ΔH ([3]; ambient, closed, 7 days): 63.00 J/g
TGA % weight loss before 150° C. ([3]; ambient, closed, 7 days): 0.5540%
DSC endotherm Temp ([3]; ambient, closed, 14 days): 125.52 °C
DSC endotherm ΔH ([3]; ambient, closed, 14 days): 63.86 J/g
TGA % weight loss before 150° C. ([3]; ambient, closed, 14 days): 0.4133%
DSC endotherm Temp ([3]; ambient, closed, 21 days): 125.38 °C
DSC endotherm ΔH ([3]; ambient, closed, 21 days): 67.51 J/g
TGA % weight loss before 150° C. ([3]; ambient, closed, 21 days): 0.8085%
DSC endotherm Temp ([3]; ambient, closed, 42 days): 125.35 °C
DSC endotherm ΔH ([3]; ambient, closed, 42 days): 66.56 J/g
TGA % weight loss before 150° C. ([3]; ambient, closed, 42 days): 0.4578%
change in physical form by XRPD, PLM or DSC/TGA ([3]; storage conditions below 75% RH, after 42 days): no significant change in physical form
Observation Initial ([4]; about 3 mg in 50 μL water, initial, succinate): Clear
solubility at 2 h ([4]; thermodynamic from solid, water, stirring 2 hrs at 800 RPM): > 60 mg/mL
form obtained from slurry competition of Form G and Form O (XRPD) [5]: converted to Form G completely
form obtained from slurry of a mixture of Form B, G and I (XRPD) [6]: converted to Form G completely
form obtained from slurry of Form G and Form I at different aw (XRPD) [7]: completely converted to Form G

C[C@H]1CCc2c(ccc(-c3cnn(C4CCNCC4)c3)c2OC2CCC2)N1C(=O)C1CC1.O=C(O)/C=C/C(=O)O [Fumarate Type A, B and C]
Solid form after slurry conversion ([8]; ACN): Fumarate Form A
Solid form after slurry conversion ([8]; Acetone): Fumarate Form B
Solid form after slurry conversion ([8]; EtOAc): Fumarate Form C

C[C@H]1CCc2c(ccc(-c3cnn(C4CCNCC4)c3)c2OC2CCC2)N1C(=O)C1CC1.O=C(O)CCC(=O)O [Succinate Form A, (S)-(5-cyclobutoxy-2-methyl-6-(1-(piperidin-4-yl)-1H-pyrazol-4-yl)-3,4-dihydroquinolin-1(2H)-yl)(cyclopropyl)methanone succinate]
solubility in water [9]: > 100 mg FB/mL
behaviour at high humidity (DVS) ([1]; >60% RH, 25° C.): deliquescent
solid form after the DVS test ([1]; succinate): amorphous or jelly solids
chemical degradation by HPLC-UV ([2]; after 42 days at 25° C./60% RH): did not show significant chemical degradation
chemical degradation by HPLC-UV ([2]; after 42 days at temperatures below 40° C.): no significant chemical degradation
